The target in one assay is human orexin-2 receptor (Homo sapiens (Human), UniProt O43614). In words: Intracellular calcium measurement (FLIPR), CHO cells expressing human orexin-2 receptor, 3 nM orexin-A. Type of assay: cell-based. To be noted: read-out: IC50 OX2. A digest of the protocol: (§1)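 CHO transfectants were dye-loaded (fluo-4 AM, probenecid) and exposed to antagonist for 120 min ahead of agonist.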
Background: A change in cytosolic calcium serves as a functional read-out for many receptors and channels.

In a further assay the target is orexin-1 (Homo sapiens (Human), UniProt O43613). Description: Intracellular calcium measurement (FLIPR), CHO cells expressing human orexin-1 receptor, 3 nM orexin-A. The assay is classed as cell-based. To be noted: read-out: IC50 OX1. A digest of the protocol: as §1
Chain of orexin-1 (O43613 whole entry): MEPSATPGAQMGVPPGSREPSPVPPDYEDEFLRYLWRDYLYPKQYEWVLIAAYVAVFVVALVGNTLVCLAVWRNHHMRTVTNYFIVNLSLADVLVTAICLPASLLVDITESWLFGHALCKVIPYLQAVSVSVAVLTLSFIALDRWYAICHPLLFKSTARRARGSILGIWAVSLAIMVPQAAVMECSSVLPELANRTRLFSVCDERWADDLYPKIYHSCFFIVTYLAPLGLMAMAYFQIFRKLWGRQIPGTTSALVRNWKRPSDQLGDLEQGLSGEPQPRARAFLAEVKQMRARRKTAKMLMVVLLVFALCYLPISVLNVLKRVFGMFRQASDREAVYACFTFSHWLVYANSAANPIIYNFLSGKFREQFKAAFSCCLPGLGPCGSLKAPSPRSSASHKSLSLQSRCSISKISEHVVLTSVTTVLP
[1] abbreviates: CHO cells expressing human orexin-2 receptor, FLIPR, 3 nM orexin-A, geometric mean if determined several times.
Setting [2] is: CHO cells expressing human orexin-1 receptor, FLIPR, 3 nM orexin-A, geometric mean if determined several times.

Structures are written as SMILES. Like-named read-outs stand apart in the source and are kept apart here.

Among the data in patent US9493446B2, “Orexin receptor antagonists which are [ortho bi-(hetero-)aryl]-[2-(meta bi-(hetero-)aryl)-pyrrolidin-1-yl]-methanone derivatives” (Actelion Pharmaceuticals Ltd, priority 2012, dated 2016) are IC50 values, retold here.

Chain of human orexin-2 receptor (O43614 whole entry): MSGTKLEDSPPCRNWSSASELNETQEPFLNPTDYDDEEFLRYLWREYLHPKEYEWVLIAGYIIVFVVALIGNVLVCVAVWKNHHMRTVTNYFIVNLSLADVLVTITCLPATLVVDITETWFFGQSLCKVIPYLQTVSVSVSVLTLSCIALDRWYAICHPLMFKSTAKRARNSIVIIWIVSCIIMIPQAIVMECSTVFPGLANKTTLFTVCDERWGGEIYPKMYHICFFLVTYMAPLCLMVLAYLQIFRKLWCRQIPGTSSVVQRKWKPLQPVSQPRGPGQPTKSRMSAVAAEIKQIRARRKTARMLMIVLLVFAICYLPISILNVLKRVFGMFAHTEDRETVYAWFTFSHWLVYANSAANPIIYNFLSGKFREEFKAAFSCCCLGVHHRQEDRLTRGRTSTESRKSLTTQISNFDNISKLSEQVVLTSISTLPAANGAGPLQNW

Broadly, the IC50 is the point on the concentration scale where inhibition reaches its midpoint. Take `COc1c(F)cccc1-c1cc([C@@H]2CCCN2C(=O)c2cc(C)ccc2-n2nccn2)on1` [compound 429, {(S)-2-[3-(3-Fluoro-2-methoxy-phenyl)-isoxazol-5-yl]-pyrrolidin-1-yl}-(5-methyl-2-[1,2,3]triazol-2-yl-phenyl)-methanone]: the values for the 50% inhibitory concentration (IC50) at human orexin-2 receptor (setting [1]) and on orexin-1 (setting [2]) were 0.026 µM and 0.098 µM, respectively.
In the case of `Cc1ccc(-n2nccn2)c(C(=O)N2CCC[C@H]2c2cc(-c3ccccc3)on2)c1` [compound 430, (5-Methyl-2-[1,2,3]triazol-2-yl-phenyl)-[(S)-2-(5-phenyl-isoxazol-3-yl)-pyrrolidin-1-yl]-methanone], the IC50 on human orexin-2 receptor (setting [1]) was 0.051 µM; at orexin-1 (setting [2]), 0.359 µM.
With `Cc1ccc(-n2nccn2)c(C(=O)N2CCC[C@H]2c2cc(-c3cccc(Cl)c3C)on2)c1` [compound 431], the figures for the IC50 on human orexin-2 receptor (setting [1]) and on orexin-1 (setting [2]) were 0.002 µM and 0.019 µM, respectively.
For `COc1cc(C(=O)N2CCC[C@H]2c2cc(-c3ccccc3)on2)c(-n2nccn2)cc1C` [compound 432, (5-Methoxy-4-methyl-2-[1,2,3]triazol-2-yl-phenyl)-[(S)-2-(5-phenyl-isoxazol-3-yl)-pyrrolidin-1-yl]-methanone] the same measures were 0.016 µM and 0.322 µM.
The like results for `COc1cc(C(=O)N2CCC[C@H]2c2cc(-c3cccc(Cl)c3C)on2)c(-n2nccn2)cc1C` [compound 433] were, in that order, 0.001 µM and 0.019 µM.
For `Cc1ccc(-n2nccn2)c(C(=O)N2CCC[C@H]2c2cc(-c3ccccc3OC(F)(F)F)on2)c1` [compound 434, (5-Methyl-2-[1,2,3]triazol-2-yl-phenyl)-{(S)-2-[5-(2-trifluoromethoxy-phenyl)-isoxazol-3-yl]-pyrrolidin-1-yl}-methanone] the same measures were 0.005 µM and 0.021 µM.
For `Cc1ccc(C(=O)N2CCC[C@H]2c2cc(-c3ccccc3OC(F)(F)F)on2)c(-n2nccn2)c1` [compound 435, (4-Methyl-2-[1,2,3]triazol-2-yl-phenyl)-{(S)-2-[5-(2-trifluoromethoxy-phenyl)-isoxazol-3-yl]-pyrrolidin-1-yl}-methanone], the half-inhibitory concentration (IC50) was 0.031 µM at human orexin-2 receptor (setting [1]) and 0.035 µM at orexin-1 (setting [2]).
`COc1cc(C(=O)N2CCC[C@H]2c2cc(-c3ccccc3OC(F)(F)F)on2)c(-n2nccn2)cc1C` [compound 436, (5-Methoxy-4-methyl-2-[1,2,3]triazol-2-yl-phenyl)-{(S)-2-[5-(2-trifluoromethoxy-phenyl)-isoxazol-3-yl]-pyrrolidin-1-yl}-methanone]: the values for the IC50 at human orexin-2 receptor (setting [1]) and at orexin-1 (setting [2]) were 0.013 µM and 0.049 µM, respectively.
As for `COc1cc(C(=O)N2CCC[C@H]2c2cc(-c3ccccc3OC(F)(F)F)on2)c(-n2nccn2)cc1Cl` [compound 437], the IC50 on human orexin-2 receptor (setting [1]) was determined as 0.015 µM; on orexin-1, 0.062 µM.
On to `Cc1ccc(-n2nccn2)c(C(=O)N2CCC[C@H]2c2nnc(-c3ccccc3)o2)c1` [compound 439, (5-Methyl-2-[1,2,3]triazol-2-yl-phenyl)-[(S)-2-(5-phenyl-[1,3,4]oxadiazol-2-yl)-pyrrolidin-1-yl]-methanone], for which the values for the IC50 at human orexin-2 receptor (setting [1]) and at orexin-1 (setting [2]) were 1.41 µM and 1.8 µM, respectively.
As for `Cc1ccc(-n2nccn2)c(C(=O)N2CCC[C@H]2c2nnc(-c3cccc(Cl)c3C)o2)c1` [compound 440], the IC50 at human orexin-2 receptor (setting [1]) was 0.021 µM; on orexin-1 (setting [2]), 0.141 µM.
The like results for `Cc1ccc(-n2nccn2)c(C(=O)N2CCC[C@H]2c2nnc(-c3ccccc3C)o2)c1` [compound 441, (5-Methyl-2-[1,2,3]triazol-2-yl-phenyl)-[(S)-2-(5-o-tolyl-[1,3,4]oxadiazol-2-yl)-pyrrolidin-1-yl]-methanone] were, in that order, 0.105 µM and 0.946 µM.
For `Cc1ccc(-n2nccn2)c(C(=O)N2CCC[C@H]2c2nnc(-c3ccccc3OC(F)(F)F)o2)c1` [compound 442, (5-Methyl-2-[1,2,3]triazol-2-yl-phenyl)-{(S)-2-[5-(2-trifluoromethoxy-phenyl)-[1,3,4]oxadiazol-2-yl]-pyrrolidin-1-yl}-methanone], the IC50 at human orexin-2 receptor (setting [1]) was found to be 0.118 µM; on orexin-1 (setting [2]), 0.184 µM.
With `Cc1nc(C(=O)N2CCC[C@H]2c2nnc(-c3ccccc3OC(F)(F)F)o2)c(-c2cccc(F)c2)s1` [compound 443, [5-(3-Fluoro-phenyl)-2-methyl-thiazol-4-yl]-{(S)-2-[5-(2-trifluoromethoxy-phenyl)-[1,3,4]oxadiazol-2-yl]-pyrrolidin-1-yl}-methanone], the IC50 turned out to be 0.045 µM on human orexin-2 receptor (setting [1]) and 0.068 µM on orexin-1 (setting [2]).
For `Cc1nc(C(=O)N2CCC[C@H]2c2nnc(-c3ccccc3OC(F)(F)F)o2)c(-c2ccccc2F)s1` [compound 444, [5-(2-Fluoro-phenyl)-2-methyl-thiazol-4-yl]-{(S)-2-[5-(2-trifluoromethoxy-phenyl)-[1,3,4]oxadiazol-2-yl]-pyrrolidin-1-yl}-methanone] the same measures were 0.06 µM and 0.083 µM.
Consider `COc1cc(C(=O)N2CCC[C@H]2c2nnc(-c3cccc(Cl)c3C)o2)c(-n2nccn2)cc1C` [compound 445], for which the IC50 on human orexin-2 receptor came to 0.009 µM; on orexin-1 (setting [2]) it was 0.157 µM.
`COc1cc(C(=O)N2CCC[C@H]2c2nnc(-c3cccc(Cl)c3C)o2)c(-n2nccn2)cc1Cl` [compound 446]: the IC50 is 0.006 µM at human orexin-2 receptor (setting [1]) and 0.082 µM at orexin-1 (setting [2]).
For `Cc1cc(C(=O)N2CCC[C@H]2c2nnc(-c3cccc(Cl)c3C)o2)c(-n2nccn2)cc1C` [compound 447] the same measures were 0.005 µM and 0.03 µM.
The like results for `Cc1ccc(-n2nccn2)c(C(=O)N2CCC[C@H]2c2nnc(-c3ccccc3OC(F)(F)F)[nH]2)c1` [compound 465, (5-Methyl-2-[1,2,3]triazol-2-yl-phenyl)-{(S)-2-[5-(2-trifluoromethoxy-phenyl)-4H-[1,2,4]triazol-3-yl]-pyrrolidin-1-yl}-methanone] were, in that order, 0.01 µM and 0.076 µM.
For `COc1ccccc1-c1nnc([C@@H]2CCCN2C(=O)c2cc(C)c(C)cc2-n2nccn2)[nH]1` [compound 466, (4,5-Dimethyl-2-[1,2,3]triazol-2-yl-phenyl)-{(S)-2-[5-(2-methoxy-phenyl)-4H-[1,2,4]triazol-3-yl]-pyrrolidin-1-yl}-methanone] the same measures were 0.069 µM and 0.026 µM.
With `COc1cc(C(=O)N2CCC[C@H]2c2nnc(-c3ccccc3OC)[nH]2)c(-n2nccn2)cc1Cl` [compound 467], the figures for the IC50 on human orexin-2 receptor (setting [1]) and at orexin-1 (setting [2]) were 0.01 µM and 0.063 µM, respectively.
The like results for `COc1cc(C(=O)N2CCC[C@H]2c2nnc(-c3ccccc3OC)[nH]2)c(-n2nccn2)cc1C` [compound 468, (5-Methoxy-4-methyl-2-[1,2,3]triazol-2-yl-phenyl)-{(S)-2-[5-(2-methoxy-phenyl)-4H-[1,2,4]triazol-3-yl]-pyrrolidin-1-yl}-methanone] were, in that order, 0.035 µM and 0.084 µM.
As to `COc1ccccc1-c1nnc([C@@H]2CCCN2C(=O)c2cc(Cl)c(C)cc2-n2nccn2)[nH]1` [compound 469], the figures for the concentration for half-maximal inhibition (IC50) on human orexin-2 receptor and on orexin-1 (setting [2]) were 0.045 µM and 0.025 µM, respectively.
Consider `COc1ccccc1-c1nnc([C@@H]2CCCN2C(=O)c2ccc(Cl)cc2-n2nccn2)[nH]1` [compound 470], for which the IC50 at human orexin-2 receptor came out at 0.031 µM; on orexin-1 (setting [2]), 0.057 µM.
